# Results as given in ChEMBL document CHEMBL4321873, “Optimization of Orally Bioavailable PI3Kδ Inhibitors and Identification of Vps34 as a Key Selectivity Target” (J Med Chem, 2020).
# Assays:
# [1] = Clearance in Wistar Han rat at 1 mg/kg, iv by LC-MS/MS analysis; format: ADME, organism-based; conditions: in vivo
# [2] = AUC (infinity) in Wistar Han rat at 1 mg/kg, po by LC-MS/MS analysis; format: ADME, organism-based; design: dose 1 mg/kg, time infinity, route oral; conditions: in vivo
# [3] = Kinetic solubility of the compound in pH 7.4 phosphate buffered saline measured after 1 hr by CLND method; format: physicochemical; conditions: read-out: Kinetic_solubility
# [4] = Volume of distribution at steady state in Wistar Han rat at 1 mg/kg, iv or 1 mg/kg, po by LC-MS/MS analysis; format: ADME, organism-based; conditions: in vivo, read-out: Vdss
# [5] = AUC (0 to 24 hrs) in Wistar Han rat at 10 mg/kg, po administered twice daily for 7 days by LC-MS/MS analysis; format: ADME, organism-based; design: dose 10 mg/kg, time < 24 hr, route oral; conditions: in vivo
# [6] = AUC (0 to 24 hrs) in Wistar Han rat at 30 mg/kg, po administered twice daily for 7 days by LC-MS/MS analysis; format: ADME, organism-based; design: dose 30 mg/kg, time < 24 hr, route oral; conditions: in vivo
# [7] = Time at which plasma concentration stays at 10 times Kd(app) for binding affinity to PI3Kdelta in human HL60 cell extract in Wistar Han rat at 10 to 100 mg/kg, po administered twice daily for 7 days; format: ADME, organism-based; conditions: in vivo, 168 h
# [8] = Intrinsic clearance in human hepatocytes at 0.5 uM measured after 10 mins by LC-MS/MS analysis; format: ADME, cell-based, Hepatocyte
# [9] = AUC (0 to 24 hrs) in Wistar Han rat at 100 mg/kg, po administered twice daily for 7 days by LC-MS/MS analysis; format: ADME, organism-based; design: dose 100 mg/kg, time < 24 hr, route oral; conditions: in vivo
# [10] = Half life in Wistar Han rat at 1 mg/kg, iv by LC-MS/MS analysis; format: ADME, organism-based; conditions: in vivo
# [11] = Oral bioavailability in Wistar Han rat at 1 mg/kg by LC-MS/MS analysis; format: ADME, organism-based; conditions: in vivo
# [12] = Time at which plasma concentration stays at 10 times Kd(app) for binding affinity to PI3Kdelta in human HL60 cell extract in Wistar Han rat at 30 to 300 mg/kg, po administered once daily for 7 days; format: ADME, organism-based; conditions: in vivo, 168 h
# [13] = Intrinsic clearance in rat hepatocytes at 0.5 uM measured after 10 mins by LC-MS/MS analysis; format: ADME, cell-based, Hepatocyte
# [14] = Intrinsic clearance in minipig hepatocytes at 0.5 uM measured after 10 mins by LC-MS/MS analysis; format: ADME, cell-based, Sus scrofa domesticus, Hepatocyte; conditions: pig
# [15] = Clearance in Wistar Han rat at 1 mg/kg, iv by LC-MS/MS analysis relative to hepatic blood flow; format: ADME, organism-based; conditions: in vivo
# [16] = Time at which plasma concentration stays at 10 times Kd(app) for binding affinity to VPS34 in human HL60 cell extract in Wistar Han rat at 100 mg/kg, po administered once daily for 7 days; format: ADME, organism-based; conditions: in vivo, 168 h
# [17] = AUC (0 to 24 hrs) in Wistar Han rat at 100 mg/kg, po administered once daily for 7 days by LC-MS/MS analysis; format: ADME, organism-based; design: time < 24 hr, dose 100 mg/kg, route oral; conditions: in vivo
# [18] = AUC (0 to 24 hrs) in Wistar Han rat at 30 mg/kg, po administered once daily for 7 days by LC-MS/MS analysis; format: ADME, organism-based; design: dose 30 mg/kg, time < 24 hr, route oral; conditions: in vivo
# [19] = AUC (0 to 4 hrs) in Wistar Han rat at 300 mg/kg, po administered once daily for 7 days by LC-MS/MS analysis; format: ADME, organism-based; design: dose 300 mg/kg, time < 4 hr, route oral; conditions: in vivo
# [20] = Permeability of the compound in pH 7.05 phosphate buffer measured after 3 hrs by artificial membrane permeability assay based LC-MS analysis; format: ADME; conditions: PAMPA, read-out: permeability
Structure (SMILES),clearance [1],AUC(0-inf) [2],solubility kinetic at 1 h [3],Vd [4],intrinsic clearance [8],half-life [10],Intrinsic clearance (CLint) [13],CLH [14],CL [15],also measured
COCCS(=O)(=O)Nc1cc(-c2cc3c(c(OC[C@H]4CN(C5COC5)CCO4)c2)COC3)cnc1OC,22 mL/min/kg,829 ng·h/mL,≥ 270 µg/mL,2 L/kg,< 0.3 mL/min/g,3.2 h,1.2 mL/min/g,0.9 mL/min/g,28%,AUC at 24 h [5]: 12600 ng·h/mL; AUC at 24 h [6]: 37400 ng·h/mL; Time [7]: 24 h; AUC at 24 h [9]: 114000 ng·h/mL; bioavailability [11]: 84%; Time [12]: 24 h
COc1ncc(-c2cc3c(c(NC(=O)CN4CCOCC4)c2)COC3)cc1NS(C)(=O)=O,–,673 ng·h/mL,–,–,–,–,–,–,–,–
COc1ncc(-c2cc3c(c(OCCN4CCC(C(C)(C)O)CC4)c2)COC3)cc1NS(=O)(=O)CC#N,–,–,–,–,–,–,–,–,–,Papp at 3 h [20]: < 0.3 ×10⁻⁶ cm/s
COCCS(=O)(=O)Nc1cc(-c2cc3c(c(OCCN4CCC(C(C)(C)O)CC4)c2)COC3)cnc1OC,–,–,–,–,< 0.9 mL/min/g,–,1.6 mL/min/g,–,28%,Papp at 3 h [20]: < 0.3 ×10⁻⁶ cm/s
COc1ncc(-c2cc(OCCN3CCC(C(C)(C)O)CC3)c3c(c2F)COC3)cc1NS(C)(=O)=O,–,–,–,–,< 0.9 mL/min/g,–,4.5 mL/min/g,–,–,–

# More lines, main results first:
clearance [1],AUC(0-inf) [2],solubility kinetic at 1 h [3],Vd [4],intrinsic clearance [8],half-life [10],Intrinsic clearance (CLint) [13],CLH [14],CL [15],Structure (SMILES),also measured
109 mL/min/kg,–,–,–,–,–,–,–,–,COc1ncc(-c2cc3c(c(OCCN4CCC(C(C)(C)O)CC4)c2)CCOC3)cc1NS(C)(=O)=O,–
–,–,–,–,< 0.9 mL/min/g,–,9.7 mL/min/g,–,–,COc1ncc(-c2cc(OCCN3CCC(C(C)(C)O)CC3)c3c(c2)[C@@H](C)OC3)cc1NS(C)(=O)=O,–
48 mL/min/kg,148 ng·h/mL,197 µg/mL,5.9 L/kg,< 0.9 mL/min/g,2.1 h,2.5 mL/min/g,< 0.9 mL/min/g,62%,COc1ncc(-c2cc3c(c(OCCN4CCC(C(C)(C)O)CC4)c2)COC3)cc1NS(C)(=O)=O,Time [16]: 24 h; AUC at 24 h [17]: 26300 ng·h/mL; Time [7]: 24 h; AUC at 24 h [18]: 5000 ng·h/mL; AUC at 4 h [19]: 27500 ng·h/mL; bioavailability [11]: 32%; Time [12]: 24 h
41 mL/min/kg,–,≥ 184 µg/mL,6.9 L/kg,< 0.9 mL/min/g,2.7 h,< 0.9 mL/min/g,< 0.9 mL/min/g,–,COCCS(=O)(=O)Nc1cc(-c2cc3c(c(OCCN4CCC(C(C)(C)O)CC4)c2)CCOC3)cnc1OC,–
